Laboratory results reported in PubChem BioAssay (NCI).
Values joined by “and” are separate entries in the source; they are usually repeats but may differ in a detail not shown here. Equal values may be shown once.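 The compound was tested at five concentrations on cells cultured in 96-well plates, with a 48-hour exposure period. At the GI50, growth is halved. TGI is the concentration that stops growth completely.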

Legend:
Assay in all cases: NCI-60 cell line screen, 48 h
ACHN renal = test system: ACHN renal
EKVX NSCLC = test system: EKVX NSCLC
KM12 colon = test system: KM12 colon
MDA-MB-231 breast = test system: MDA-MB-231 breast
MDA-MB-435 = test system: MDA-MB-435
MOLT-4 leukemia = test system: MOLT-4 leukemia
NCI-H460 lung = test system: NCI-H460 lung
SF-539 CNS = test system: SF-539 CNS
SR leukemia = test system: SR leukemia
TK-10 renal = test system: TK-10 renal

Structure (SMILES)	GI50 (ACHN renal)	TGI (ACHN renal)	GI50 (EKVX NSCLC)	TGI (EKVX NSCLC)	GI50 (KM12 colon)	TGI (KM12 colon)	GI50 (MDA-MB-231 breast)	TGI (MDA-MB-231 breast)	GI50 (MDA-MB-435)	TGI (MDA-MB-435)	GI50 (MOLT-4 leukemia)	TGI (MOLT-4 leukemia)	GI50 (NCI-H460 lung)	TGI (NCI-H460 lung)	GI50 (SF-539 CNS)	TGI (SF-539 CNS)	GI50 (SR leukemia)	TGI (SR leukemia)	GI50 (TK-10 renal)	TGI (TK-10 renal)
CCCn1cnc2c(SCc3ccccc3Cl)nc(N)nc21	13.6 µM	67.4 µM	24.2 µM	> 100 µM	15.3 µM	> 100 µM	11.8 µM	29.3 µM	13.6 µM	37 µM	5.22 µM	34.1 µM	4.2 µM	26.4 µM	9.81 µM	44.8 µM	2.23 µM	14.2 µM	14.5 µM	> 100 µM
O=C(N/N=C/c1ccccc1O)c1ccccc1Nc1ccnc(C(F)(F)F)c1	0.342 µM	> 63.5 µM	0.302 µM	67.2 µM	0.484 µM	32.7 µM	0.796 µM	> 95.4 µM	1.37 µM	> 100 µM	0.28 µM	> 32.3 µM	0.255 µM	11.2 µM	0.545 µM	11.3 µM	0.197 µM		0.467 µM	> 100 µM
O=C1Nc2c(C(F)(F)F)cccc2[C@]1(c1ccc(O)cc1)c1ccc(OC(F)(F)F)cc1	9.82 µM	21.5 µM	8.09 µM	21.6 µM	11.3 µM	24.2 µM	13 µM	26.2 µM	13.6 µM	26.6 µM	5.34 µM	23.6 µM	8.43 µM	28.8 µM	14.4 µM	27.6 µM	6.6 µM	39.8 µM	11.5 µM	25.3 µM
CC(=O)OC[C@]1(C)C=C2C(=O)[C@](C)(O)C3(CC3)C(C)=C2[C@H]1O	0.0221 µM	0.0501 µM	0.252 µM	1.2 µM	0.191 µM	> 34.7 µM	0.152 µM	0.806 µM	0.136 µM	0.587 µM	0.0629 µM	> 100 µM	0.0282 µM	0.0844 µM	0.166 µM	0.388 µM	0.0667 µM	> 100 µM	0.233 µM	2.99 µM
Cn1c(=O)c2[nH]c(SCc3ccccn3)nc2n(C)c1=S		> 100 µM		> 100 µM		> 100 µM		> 100 µM		> 100 µM		> 100 µM		> 100 µM		> 100 µM		> 100 µM		> 100 µM
COc1cc2c(c(O)c1Br)C(=O)c1c(O)cc(C[C@H](C)O)cc1[C@H]2[C@H]1c2cc(C[C@H](C)O)cc(O)c2C(=O)c2c1cc(OC)c(Br)c2O	2.38 µM and 10.5 µM	9.27 µM and 23.1 µM	4.86 µM and 6.86 µM	16.3 µM and 27.5 µM	5.96 µM and 26.4 µM	37.9 µM and 82.4 µM	3.76 µM and 14.1 µM	21.7 µM and 34.8 µM	5.76 µM and 13.4 µM	36.1 µM and 37.6 µM	3.54 µM and 6.39 µM	67.5 µM and > 100 µM	2.76 µM and 5.27 µM	21.4 µM and 19.4 µM	2.66 µM and 3.67 µM	14.8 µM and 13.6 µM	3.04 µM and 3.98 µM	67.5 µM and > 100 µM	13.8 µM and 31.4 µM	67.5 µM and > 100 µM
O/N=C/C1c2ccccc2-c2ccccc21		32.2 µM		28.2 µM		37.4 µM		29 µM		34.3 µM		52.6 µM		36 µM		31 µM		51.7 µM		34.9 µM
C=C1C(=O)O[C@H]2[C@H]1CC/C(COC(=O)c1ccc3ccccc3c1)=C\CC[C@@]1(C)O[C@@H]21	1.1 µM	2.32 µM	1.63 µM	3.63 µM	1.48 µM	3.16 µM	1.35 µM	3 µM	1.1 µM	2.45 µM	0.503 µM	3.47 µM	1.69 µM	3.75 µM	0.838 µM	2.23 µM	0.336 µM	> 26.8 µM	1.52 µM	2.85 µM
CC1=CC(=Nc2ccc(N(CCCl)CCCl)cc2)C=C(C)C1=O	0.29 µM	1.61 µM	3.31 µM	35 µM	2.64 µM	11.3 µM	2.85 µM	9.32 µM	1.67 µM	4.55 µM	0.377 µM	> 25.6 µM	0.181 µM	1.96 µM	0.448 µM	8.71 µM	0.288 µM	> 33.9 µM	1.94 µM	5.55 µM
COc1cc(C2=NOC(c3cc(OC)c(OC)c(OC)c3)C2)ccc1OCCCCOc1cc2c(cc1OC)C(=O)N1CCC[C@H]1C=N2 (some centres undefined)	0.243 µM	0.523 µM	0.471 µM	5.43 µM	0.298 µM	0.882 µM	0.235 µM	0.75 µM	0.179 µM	0.371 µM	0.299 µM		0.275 µM		0.277 µM	0.894 µM	0.279 µM		0.273 µM	0.704 µM
CCOc1cc2c(Cl)ncnc2c(OCC)c1OCC	14.1 µM	27.1 µM	13.3 µM	29.5 µM	4.96 µM	16.4 µM	11.9 µM	24.9 µM	6.06 µM	21.2 µM	2.87 µM	10.4 µM	5.21 µM	17.7 µM	14 µM	27.8 µM	1.18 µM	4.31 µM	26.9 µM	> 76.2 µM
COC1/C=C\C=C(/C)C(=O)NC2=CC(=O)C(=O)C(=C2O)CC(C)CC(OC)C(O)C(C)/C=C(\C)C1OC(N)=O (centres undefined)		> 82.1 µM		32.7 µM		5.57 µM		4.22 µM		11.8 µM		> 52.3 µM		> 100 µM		22.5 µM		25 µM		> 57.5 µM
Oc1ccc(NCc2nc3ccccc3[nH]2)cc1	> 100 µM	> 100 µM	46.2 µM	> 100 µM	> 100 µM	> 100 µM	38.4 µM	> 100 µM	> 100 µM	> 100 µM	> 100 µM	> 100 µM	41.9 µM	> 100 µM	51.7 µM	> 100 µM	53.8 µM	> 100 µM	> 100 µM	> 100 µM
CN1CCN(C)C12C=c1ccccc1=CC21CC1		> 100 µM		> 100 µM		68.4 µM		> 100 µM		48.3 µM		54.8 µM		> 75.1 µM		> 100 µM		63.2 µM		> 100 µM
CC[CH2][Sn]([CH2]CC)([O]C(=O)c1cccnc1SC)[O][Sn]([CH2]CC)([CH2]CC)[O]C(=O)c1cccnc1SC	0.427 µM	0.97 µM	0.699 µM	2.85 µM	1.5 µM	4.43 µM	1.34 µM	2.76 µM	1.54 µM	2.89 µM	0.149 µM	> 16.6 µM	1.99 µM	4.94 µM	0.468 µM	1.24 µM	0.214 µM	12.1 µM	0.409 µM	1.09 µM
O=c1[nH]ncc(Br)c1Br	1.79 µM	3.17 µM	2.87 µM	13.1 µM	2.71 µM	13.7 µM	1.68 µM	3.56 µM	2.2 µM	6.2 µM	2.41 µM	5.19 µM	13.1 µM	27.4 µM	2.42 µM	6.31 µM	0.911 µM	3.9 µM	3.45 µM	10.7 µM
CC[C@]1(O)C[C@@H]2CN(CCc3c([nH]c4ccccc34)[C@@](C(=O)OC)(c3cc4c(cc3OC)N(C)[C@H]3[C@@](O)(C(=O)OC)[C@H](OC(C)=O)[C@]5(CC)C=CCN6CC[C@]43[C@@H]65)C2)C1	< 0.0324 µM	73.9 µM		> 79 µM	< 0.01 µM	14.4 µM	< 0.01 µM	11.2 µM	< 0.01 µM	< 0.01 µM	< 0.01 µM	21.3 µM	< 0.01 µM	15.1 µM	< 0.01 µM	< 0.01 µM	< 0.01 µM	19.6 µM	6.02 µM	26.9 µM
Oc1ccc2ccccc2c1N=Nc1nccs1	0.27 µM	14 µM	0.807 µM	> 54.3 µM	0.629 µM	19.9 µM	0.745 µM	> 100 µM	3.03 µM	27.9 µM	0.186 µM	> 46.9 µM	0.839 µM	> 100 µM	2.33 µM	13.2 µM	0.111 µM		8.28 µM	22.2 µM
